Test: Anticancer human tumor 997537-175-T-J1-PDC patient-derived colon adenocarcinoma cell line growth inhibition [POLQ]
Conditions: 997537-175-T-J1-PDC complex spheroid viability, combination with POLQ inhibitors; for IC50: curve of first compound; for viability, T/C: stronger effect = lower value
Summary of the method: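 Growth inhibition in 3D: complex spheroids (tumor PDC, HUVEC, MSC) treated with POLQ inhibitor combinations; where Cmax unknown, highest tested concentration 10 microM, except SN-38 at 1 microM.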

[1] = second compound 0.0316 µM, first compound 0.0316 µM
[2] = second compound 0.0316 µM, first compound 0.1 µM
[3] = second compound 0.0316 µM, first compound 0.316 µM
[4] = second compound 0.0316 µM, first compound 1 µM
[5] = second compound 0.0316 µM, first compound 3.16 µM
[6] = second compound 0.0316 µM, first compound 10 µM
[7] = second compound 0.1 µM, first compound 0.0316 µM
[8] = second compound 0.1 µM, first compound 0.1 µM
[9] = second compound 0.1 µM, first compound 0.316 µM
[10] = second compound 0.1 µM, first compound 1 µM
[11] = second compound 0.1 µM, first compound 3.16 µM
[12] = second compound 0.1 µM, first compound 10 µM
[13] = second compound 0.316 µM, first compound 0.0316 µM
[14] = second compound 0.316 µM, first compound 0.1 µM
[15] = second compound 0.316 µM, first compound 0.316 µM
[16] = second compound 0.316 µM, first compound 1 µM
[17] = second compound 0.316 µM, first compound 3.16 µM
[18] = second compound 0.316 µM, first compound 10 µM
[19] = second compound 1 µM, first compound 0.0316 µM
[20] = second compound 1 µM, first compound 0.1 µM
[21] = second compound 1 µM, first compound 0.316 µM
[22] = second compound 1 µM, first compound 1 µM
[23] = second compound 1 µM, first compound 3.16 µM
[24] = second compound 1 µM, first compound 10 µM
[25] = second compound 3.16 µM, first compound 0.0316 µM
[26] = second compound 3.16 µM, first compound 0.1 µM
[27] = second compound 3.16 µM, first compound 0.316 µM
[28] = second compound 3.16 µM, first compound 1 µM
[29] = second compound 3.16 µM, first compound 3.16 µM
[30] = second compound 3.16 µM, first compound 10 µM
[31] = second compound 10 µM, first compound 0.0316 µM
[32] = second compound 10 µM, first compound 0.1 µM
[33] = second compound 10 µM, first compound 0.316 µM
[34] = second compound 10 µM, first compound 1 µM
[35] = second compound 10 µM, first compound 3.16 µM
[36] = second compound 10 µM, first compound 10 µM
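Note: luminescence signal used as a surrogate for viable cells; spheroids exposed to drugs for seven days before readout.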

CC(C)n1c(=O)n(C)c2cnc3cc(F)c(-c4ccc(OCCCN5CCCCC5)nc4)cc3c21 + COC1C(OC(N)=O)C(O)C(Oc2ccc3c(O)c(NC(=O)c4ccc(O)c(CC=C(C)C)c4)c(=O)oc3c2C)OC1(C)C
IC50 (second compound 0.0316 µM): > 10 µM | IC50 (second compound 0.1 µM): > 10 µM | IC50 (second compound 0.316 µM): > 10 µM | IC50 (second compound 1 µM): > 10 µM | IC50 (second compound 3.16 µM): > 10 µM | IC50 (second compound 10 µM): > 10 µM | viability, T/C [1]: 79% | viability, T/C [2]: 104% | viability, T/C [3]: 106% | viability, T/C [4]: 89.6% | viability, T/C [5]: 102% | viability, T/C [6]: 89.5% | viability, T/C [7]: 103% | viability, T/C [8]: 102% | viability, T/C [9]: 102% | viability, T/C [10]: 96% | viability, T/C [11]: 93.8% | viability, T/C [12]: 88.1% | viability, T/C [13]: 83.8% | viability, T/C [14]: 102% | viability, T/C [15]: 114% | viability, T/C [16]: 80.4% | viability, T/C [17]: 89.2% | viability, T/C [18]: 77.7% | viability, T/C [19]: 97.6% | viability, T/C [20]: 97.3% | viability, T/C [21]: 102% | viability, T/C [22]: 99.6% | viability, T/C [23]: 93.2% | viability, T/C [24]: 88% | viability, T/C [25]: 98.4% | viability, T/C [26]: 97.8% | viability, T/C [27]: 90.7% | viability, T/C [28]: 88% | viability, T/C [29]: 80% | viability, T/C [30]: 89.8% | viability, T/C [31]: 103% | viability, T/C [32]: 95.8% | viability, T/C [33]: 90.9% | viability, T/C [34]: 82.6% | viability, T/C [35]: 80.1% | viability, T/C [36]: 85.5%

CCc1cc2c(N3CCc4c(cc(Cn5ccnc5)cc4-c4cn(C)nc4C(F)(F)F)C3=O)ccnc2c(OC)n1 + COC1C(OC(N)=O)C(O)C(Oc2ccc3c(O)c(NC(=O)c4ccc(O)c(CC=C(C)C)c4)c(=O)oc3c2C)OC1(C)C
IC50 (second compound 0.0316 µM): > 10 µM | IC50 (second compound 0.1 µM): > 10 µM | IC50 (second compound 0.316 µM): > 10 µM | IC50 (second compound 1 µM): > 10 µM | IC50 (second compound 3.16 µM): > 10 µM | IC50 (second compound 10 µM): > 10 µM | viability, T/C [1]: 101% | viability, T/C [2]: 107% | viability, T/C [3]: 83% | viability, T/C [4]: 86% | viability, T/C [5]: 93.8% | viability, T/C [6]: 57% | viability, T/C [7]: 108% | viability, T/C [8]: 106% | viability, T/C [9]: 94.6% | viability, T/C [10]: 98.5% | viability, T/C [11]: 98.4% | viability, T/C [12]: 52.3% | viability, T/C [13]: 97% | viability, T/C [14]: 104% | viability, T/C [15]: 103% | viability, T/C [16]: 95.7% | viability, T/C [17]: 61.9% | viability, T/C [18]: 52.1% | viability, T/C [19]: 113% | viability, T/C [20]: 83.3% | viability, T/C [21]: 71.3% | viability, T/C [22]: 93.8% | viability, T/C [23]: 69% | viability, T/C [24]: 52.3% | viability, T/C [25]: 106% | viability, T/C [26]: 99% | viability, T/C [27]: 91.9% | viability, T/C [28]: 76.5% | viability, T/C [29]: 70% | viability, T/C [30]: 64.8% | viability, T/C [31]: 110% | viability, T/C [32]: 89.5% | viability, T/C [33]: 93.2% | viability, T/C [34]: 92.1% | viability, T/C [35]: 55.6% | viability, T/C [36]: 58.6%

COc1cc2cc(C(=O)CCC(=O)O)sc2cc1OC + COC1C(OC(N)=O)C(O)C(Oc2ccc3c(O)c(NC(=O)c4ccc(O)c(CC=C(C)C)c4)c(=O)oc3c2C)OC1(C)C
IC50 (second compound 0.0316 µM): > 10 µM | IC50 (second compound 0.1 µM): > 10 µM | IC50 (second compound 0.316 µM): > 10 µM | IC50 (second compound 1 µM): > 10 µM | IC50 (second compound 3.16 µM): > 10 µM | IC50 (second compound 10 µM): > 10 µM | viability, T/C [1]: 95.1% | viability, T/C [2]: 98.6% | viability, T/C [3]: 88.1% | viability, T/C [4]: 92.5% | viability, T/C [5]: 89.7% | viability, T/C [6]: 80.3% | viability, T/C [7]: 94.3% | viability, T/C [8]: 96.3% | viability, T/C [9]: 87.5% | viability, T/C [10]: 93.5% | viability, T/C [11]: 99.1% | viability, T/C [12]: 92.2% | viability, T/C [13]: 101% | viability, T/C [14]: 108% | viability, T/C [15]: 99.9% | viability, T/C [16]: 96.2% | viability, T/C [17]: 86.2% | viability, T/C [18]: 91.8% | viability, T/C [19]: 100% | viability, T/C [20]: 98.4% | viability, T/C [21]: 104% | viability, T/C [22]: 93.5% | viability, T/C [23]: 100% | viability, T/C [24]: 90.4% | viability, T/C [25]: 96.2% | viability, T/C [26]: 101% | viability, T/C [27]: 96.5% | viability, T/C [28]: 101% | viability, T/C [29]: 97.3% | viability, T/C [30]: 105% | viability, T/C [31]: 97.2% | viability, T/C [32]: 89.6% | viability, T/C [33]: 95.5% | viability, T/C [34]: 104% | viability, T/C [35]: 94.8% | viability, T/C [36]: 84.1%

Source: PubChem BioAssay AID1963825 (Molecular Pharmacology Branch, DTP, NCI, 2024)
